This passage reports IC50 results from patent US7605175B2, “Inhibitors of cyclin-dependent kinases, compositions and uses related thereto” (GPC Biotech AG, priority 2001, dated 2009).

Bounds are passed on as bounds.

In experiment [1] the target is T1, Cdc2/cyclin B (Homo sapiens, UniProt P06493).
T1 construct: purchased
As to the kind of experiment: Biochemical kinase assay Cdc2/cyclin B. The conditions noted are these: Table 6. The method, boiled down:
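Radiometric TCA-precipitation assay measuring [γ-32P]ATP incorporation into Histone H1 (20 μg); 50 μM ATP, 10% DMSO, Tris pH 7.5 with MgCl2 and DTT. Compounds at 1 nM to 10 μM; reaction 20 min at 30 °C, stopped with EDTA/ATP. Activity relative to DMSO control after subtracting 50 mM EDTA background.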

In experiment [2] the target is T2, Cdk2/cyclin E (Homo sapiens, UniProt P24941).
T2 construct: made in house; host or cells: Sf9 insect cells
As to the kind of experiment: Biochemical kinase assay Cdk2/cyclin E. The conditions noted are these: Table 6. The method, boiled down:
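Sf9-expressed Cdk/cyclin heterodimers phosphorylate GST-Rb (residues 379–928, 40 μg) with 50 μM ATP plus [γ-33P]ATP, pH 7.5, 10% DMSO, 15 min at 30 °C. Compounds 1 nM–10 μM. 33P captured on glutathione-sepharose and scintillation-counted; activity relative to DMSO control after EDTA-background subtraction.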

For experiment [3], the system named is adriamycin resistant cell line (ADR-res). As to the kind of experiment: NCI panel (SRB), adriamycin resistant cell line. Type of experiment: cell-based. The settings on record: Homo sapiens. From the text: The evaluation of compounds at the National Cancer Institute in their panel of 60 cell lines provides a wealth of information regarding efficacy in a wide range of tumor types and genetic backgrounds. Included within this panel are cell lines derived from leukemia, melanoma and cancers of the lung, colon, brain, ovary, breast, prostate and kidney. Use of this panel provides a measure of the efficacy of compounds in cells with alterations in many genes that are associated with neoplastic transformation including p53 and Her2/Neu as well as those involved in metabolism and those which confer multi-drug resistance. The data generated in these cell lines with the protocol described below can be used to evaluate the activity of compounds.
Cells were grown in RPMI-1640 10% FCS and plated in 96 well micro-titer plates at densities ranging from 5,000 to 40,000 cells/well. The plates were incubated for 24 hours at 37° C., 5% CO2 for 24 hours. […]
The effect of the compound on cellular viability was determined with the Sulforhodamine B (SRB) assay, which measures total protein. […] The bound stain was solubilized with 10 mM trizma base and the absorbance was read on a plate reader at […].

T1 sequence (P06493 whole entry, species assumed): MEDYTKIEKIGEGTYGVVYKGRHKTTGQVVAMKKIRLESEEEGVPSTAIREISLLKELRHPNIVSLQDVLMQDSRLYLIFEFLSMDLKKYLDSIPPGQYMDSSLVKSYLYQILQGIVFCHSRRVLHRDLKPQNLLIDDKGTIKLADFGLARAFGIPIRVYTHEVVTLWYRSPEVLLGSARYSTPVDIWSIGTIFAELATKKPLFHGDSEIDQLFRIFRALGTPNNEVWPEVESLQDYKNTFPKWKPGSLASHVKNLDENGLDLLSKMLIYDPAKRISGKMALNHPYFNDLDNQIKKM
T1 sequence (P14635 whole entry partner, species assumed): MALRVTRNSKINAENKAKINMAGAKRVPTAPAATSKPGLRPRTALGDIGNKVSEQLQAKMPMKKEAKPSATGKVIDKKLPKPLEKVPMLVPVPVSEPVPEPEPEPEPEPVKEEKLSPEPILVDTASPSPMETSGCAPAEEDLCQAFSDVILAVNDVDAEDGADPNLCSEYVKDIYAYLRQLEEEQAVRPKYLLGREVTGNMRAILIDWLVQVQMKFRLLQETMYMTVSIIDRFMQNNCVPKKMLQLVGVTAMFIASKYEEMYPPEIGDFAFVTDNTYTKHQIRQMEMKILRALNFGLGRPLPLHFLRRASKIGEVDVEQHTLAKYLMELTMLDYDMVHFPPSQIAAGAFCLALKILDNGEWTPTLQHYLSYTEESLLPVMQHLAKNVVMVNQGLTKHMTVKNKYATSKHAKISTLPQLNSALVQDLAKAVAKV

As to `COCCN1CCN(Cc2ccc(-c3[nH]nc4c3C(=O)c3c(NC(=O)NN5CCOCC5)cccc3-4)cc2)CC1.Cl.Cl` [Compound B16, N-[3-(4-{[4-(2-methoxyethyl)piperazinyl]methyl}phenyl)-4-oxoindeno[2,3-d]pyrazol-5-yl](morpholin-4-ylamino)carboxamide dihydrochloride], the IC50 in experiment [1] and in experiment [2] was below 10 nM throughout. Turning to `CC(C)N1CCN(C(=O)COc2ccc(-c3[nH]nc4c3C(=O)c3c(NC(=O)NN5CCOCC5)cccc3-4)cc2)CC1.Cl` [Compound A37], the 50% inhibitory concentration (IC50) in experiment [1] and in experiment [2] was below 100 nM throughout. In experiment [3], `CC(C)c1nn(-c2c(Cl)cccc2Cl)c2nc(Cc3ccc(O)c(CN4CCN(C(C)C)CC4)c3)[nH]c(=O)c12` [Compound C] displayed an IC50 below 100 nM.
